From patent US20230050846A1, “TREATMENT OF HEPATIC AND CARDIOVASCULAR DISORDERS” (LIFESEARCH, priority 2019, published 2023)
Where two headings read alike, the source gives them in different places. Peptide text beside a SMILES is read from it. * marks the point of attachment. Palmitoyl = CCCCCCCCCCCCCCCC(=O)*

Key:
[1] = Stability in plasma and serum (LC-HRMS); type: in vitro ADME, human and mouse; details: 37° C.
Description: Peptide of Formula (I) or peptide of Formula (II) were prepared at a concentration of 200 μg/mL in PBS or mixed with EDTA plasma or serum from human (Etablissement Frangais du Sang, EFS) or mouse (C57BL/6J, cardiac puncture). Aliquots from PBS samples (40 μL) were incubated at 4° C. or 37° C. for 0, 1, 2 and 4 weeks. Aliquots from plasma and serum samples (50 μL) were incubated at 4° C. or 37° C. for 0, 1, 2, 4, 6, 12, 24 h.
A mixed solution of peptides of formula (I) and (II) was constituted and serially diluted in PBS to obtain seven standard solutions, ranging from 200 μg/mL to 0.2 μg/mL. In parallel, a mixed solution of labelled peptides of Formula (I) and (II) (Thermo Scientific, Biopolymers Darmstadt, Germany) was prepared in PBS at 100 μg/mL. The mixed solution of labelled peptides (25 μL) was added to 25 μL of standard solutions as well as to PBS, plasma and serum samples. Acetonitrile (150 μL) was added to each sample to precipitate plasma/serum proteins. After centrifugation (10,000×g, 4° C., 10 min), the clear supernatants (150 μL) were dried under a gentle stream of nitrogen (45° C.), reconstituted with 10% acetonitrile containing 0.1% formic acid (100 μL), and injected into the liquid chromatography-high-resolution mass spectrometry (LC-HRMS) system. LC-HRMS analyses were performed on an H-Class UPLC system (Waters Corporation, Milford, Mass., USA) by injection of 10 μL of samples onto an Acquity® Peptide CSH C18 column (2.1 mm×150 mm, 1.7 μm; Waters Corporation) held at 60° C. The mobile phase was composed of 5% acetonitrile as solvent A and 100% acetonitrile as solvent B, each containing 0.1% formic acid. The elution was carried out using a gradient of solvent B in solvent A over 20 min at a constant flow rate of 250 μL/min. […] HRMS detection was performed by a Synapt G2 HRMS Q-TOF mass spectrometer equipped with a Z-Spray interface for electrospray ionization (Waters Corporation). The resolution mode was applied in a mass-to-charge (m/z) ratio ranging from 200 to 4,000 at a mass resolution of 25,000 Full Width Half Maximum in the positive ionization mode. Ionization parameters were as follow: capillary voltage of 3 kV, cone voltage of 30 V, desolvatation gas flow of 900 L/hr, source temperature of 120° C., desolvatation temperature of 450° C., Nitrogen as desolvatation gas. Data were collected in the continuum mode at a rate of four spectra per second. […] Peptides were analyzed according to their major exact m/z (i 5 ppm, Table 1) and each peptide signal was normalized with that of its labelled internal standard. Peptide concentrations were calculated using calibration curves plotted from standard solutions (linear regression, 1/x weighted, origin excluded).

LDLR knock-out mice = assay: Biliary lipid secretions, gallbladder cannulation, dyslipidemic LDLR KO mice; type: in vivo, mouse; details: dyslipidemic LDL KO mice, ip 25 mg/kg, 2 h
Description: Wild-type C57B/L6J male mice were purchased from Janvier Labs (Le Genest Saint Isle, France). LDLR knock-out mice (males, C57B/L6J background) were obtained from The Jackson Laboratory (Bar Harbor, Me., USA). Mice were caged in animal rooms under specific pathogen free conditions at the animal facility of Rangueil (Anexplo platform, US006, Toulouse, France) with a light/dark schedule of 12 h/12 h and were fed ad libitum with a normal chow diet (#V1535 R/M-H, Ssniff, Germany). […]
Depending of experiments, 8 weeks old mice were intraperitoneally injected with PBS, the peptide of formula (I), the peptide of formula (II) and SCR. […] Bile flow (expressed in μL/min/100 g of body weight) was determined gravimetrically assuming a density of 1 g/mL for bile. […]
For bile acid analysis, 1 μL of bile samples was diluted with 99 μL of milliQ water then incubated with the work reagent (6 mg NAD, 0.5 M hydrazine hydrate buffer, 0.05 M Na-pyrophosphate) for 4 min. The mix was then incubated with a start reagent (0.03 M Tris-EDTA; 0.3 U/mL 3-alpha-OH steroid dehydrogenase) and measured for 30 min, under excitation of 340/330 nm and emission of 440/420 nm. […] The mix was then incubated with a start reagent (1 M MOPS, pH 8, 50 U/mL Choline oxidase) and measured for 67.5 min, under excitation of 340/330 and emission of 440/40. […]

[2] = EDTA plasma, read-out: recovery of the peptide in plasma
[3] = serum, read-out: recovery of the peptide in serum

Q: For `CCCCCCCCCCCCCCCC(=O)NCCCC[C@H](NC(=O)[C@H](CCC(=O)O)NC(=O)[C@H](CCCNC(=N)N)NC(=O)[C@H](CO)NC(=O)[C@H](CCC(N)=O)NC(=O)[C@H](C)NC(=O)[C@H](CCCNC(=N)N)NC(=O)[C@H](Cc1ccccc1)NC(=O)[C@H](Cc1ccc(O)cc1)NC(=O)[C@H](CCCNC(=N)N)NC(=O)[C@H](CCC(=O)O)NC(=O)[C@H](CCC(=O)O)NC(=O)[C@H](CCC(=O)O)NC(=O)[C@H](C)NC(=O)[C@H](CCC(N)=O)NC(=O)[C@H](CCC(=O)O)NC(=O)[C@H](CCCNC(=N)N)NC(=O)[C@H](CCCCN)NC(=O)CNC(=O)[C@H](Cc1ccccc1)NC(=O)[C@H](C)NC(=O)CNC(=O)CNC(=O)[C@H](C)NC(=O)[C@H](CCC(=O)O)NC(=O)[C@H](CCCNC(=N)N)NC(=O)[C@@H](NC(=O)[C@H](CO)NC(=O)CNC(=O)[C@H](C)NC(=O)CNC(=O)[C@H](CCCNC(=N)N)NC(C)=O)[C@@H](C)CC)C(N)=O` [peptide of formula (II), CH3CO-[SEQ ID NO: 1]-K-[palmitoyl]-NH2] (Ac-RGAGSIREAGGAFGKREQAEEERYFRAQSREK(Palmitoyl)-NH2), which recovery at 24 h, 200 μg/mL [1, 2] is on record?
A: 50%

Q: What about the recovery at 24 h, 200 μg/mL [1, 3] of the same compound?
A: 100%

Q: And the “stimulation of biliary flux and biliary lipid secretion” value (LDLR knock-out mice)?
A: maintained

Q: With “Ac-RGAGSIREAGGAFGKREQAEEERYFRAQSRE-NH2 [peptide of formula (I), CH3CO-[SEQ ID NO: 1]-NH2]” as the compound, how does the recovery at 24 h, 200 μg/mL [1, 2] read?
A: 10%

Q: What about the recovery at 24 h, 200 μg/mL [1, 3] of the same compound?
A: 30%

Q: And the “stimulation of biliary flux and biliary lipid secretion” value (LDLR knock-out mice)?
A: maintained
